Laboratory results taken from paper PMC7006757, “Design, synthesis and in vitro biological evaluation of quinazolinone derivatives as EGFR inhibitors for antitumor treatment” (Journal of Enzyme Inhibition and Medicinal Chemistry, 2020).

Experiments:
EGFR^wt-TK = molecular target: T1, EGFR^wt-TK (Homo sapiens, UniProt P00533); test: In vitro EGFR^wt-TK assay (ELISA with recombinant EGFR); type: biochemical; conditions: mean ± SD of three replicates; for inhibition at 1 µM: read-out: EGFR^wt-TK inhibition rate (%, 1 μM)
T1 construct: purchased Sino Biology Inc
Protocol: Recombinant EGFR was purchased from Sino Biology Inc. Antiphosphotyrosine mouse mAb was purchased from PTM Bio. The effects of compounds on the activity of wild type EGFR tyrosine kinase were determined by enzyme-linked immunosorbent assays (ELISAs) with recombinant EGFR according to reported methods.

A549 cells [1] = test: MTT assay, A549; conditions: Homo sapiens; for IC50: A549, read-out: IC50 (μM) A549; for inhibition at 10 µM: A549, read-out: Inhibition rate (%, 10 μM) A549
PC-3 cells = test: MTT assay, PC-3; conditions: Homo sapiens; for IC50: PC-3, read-out: IC50 (μM) PC-3; for inhibition at 10 µM: PC-3, read-out: Inhibition rate (%, 10 μM) PC-3
SMMC-7721 cells = test: MTT assay, SMMC-7721; conditions: Homo sapiens; for IC50: SMMC-7721, read-out: IC50 (μM) SMMC-7721; for inhibition at 10 µM: SMMC-7721, read-out: Inhibition rate (%, 10 μM) SMMC-7721
A549 cells [2] = test: Cell apoptosis analysis, Annexin V-FITC/PI flow cytometry; type: cell-based, human; conditions: A549, 5, 10, 20 μM, 48 h
A549 cells [3] = test: Cell cycle analysis, PI flow cytometry; type: cell-based, human; conditions: for Percentage of cells in G0/G1 / Percentage of cells in G2/M / Percentage of cells in S: 48 h
EGFR = conditions: Figure 2; read-out: Reported EGFR inhibitors: IC50; cited from earlier work

T1 sequence (P00533 25-1210): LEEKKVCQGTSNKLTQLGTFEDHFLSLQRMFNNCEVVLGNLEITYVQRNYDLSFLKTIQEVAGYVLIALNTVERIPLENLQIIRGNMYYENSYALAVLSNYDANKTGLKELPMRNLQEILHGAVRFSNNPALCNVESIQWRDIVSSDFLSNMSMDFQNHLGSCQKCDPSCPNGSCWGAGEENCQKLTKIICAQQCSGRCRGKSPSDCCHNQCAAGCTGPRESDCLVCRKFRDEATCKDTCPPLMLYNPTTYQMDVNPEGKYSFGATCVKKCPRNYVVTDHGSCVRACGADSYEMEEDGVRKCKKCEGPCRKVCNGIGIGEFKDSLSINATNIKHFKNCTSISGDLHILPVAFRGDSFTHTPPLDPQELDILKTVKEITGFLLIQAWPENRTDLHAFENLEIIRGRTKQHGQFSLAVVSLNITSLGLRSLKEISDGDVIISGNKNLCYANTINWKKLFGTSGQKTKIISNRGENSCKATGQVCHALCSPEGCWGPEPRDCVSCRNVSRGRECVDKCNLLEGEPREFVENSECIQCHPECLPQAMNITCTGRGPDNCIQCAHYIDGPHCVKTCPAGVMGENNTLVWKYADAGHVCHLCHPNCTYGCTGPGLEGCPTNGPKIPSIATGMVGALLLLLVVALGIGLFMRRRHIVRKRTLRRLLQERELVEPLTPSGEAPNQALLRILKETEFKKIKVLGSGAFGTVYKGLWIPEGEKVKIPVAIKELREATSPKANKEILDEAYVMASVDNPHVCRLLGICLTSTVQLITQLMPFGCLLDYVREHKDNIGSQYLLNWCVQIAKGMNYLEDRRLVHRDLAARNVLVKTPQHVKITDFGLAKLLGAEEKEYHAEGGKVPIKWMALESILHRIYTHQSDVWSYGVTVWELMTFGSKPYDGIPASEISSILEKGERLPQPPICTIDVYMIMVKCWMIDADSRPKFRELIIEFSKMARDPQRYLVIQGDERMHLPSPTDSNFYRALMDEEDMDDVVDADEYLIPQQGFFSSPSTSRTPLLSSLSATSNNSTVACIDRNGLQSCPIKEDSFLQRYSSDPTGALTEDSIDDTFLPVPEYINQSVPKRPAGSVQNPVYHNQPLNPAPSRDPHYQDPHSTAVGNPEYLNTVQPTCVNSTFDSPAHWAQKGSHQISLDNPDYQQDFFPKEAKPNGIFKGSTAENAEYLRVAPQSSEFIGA

Compound | inhibition at 1 µM (EGFR^wt-TK) | inhibition at 10 µM (A549 cells [1]) | inhibition at 10 µM (PC-3 cells) | inhibition at 10 µM (SMMC-7721 cells) | melting point | other results
O=c1[nH]cc(F)c(=O)[nH]1 [5-Fluorouracil, reference compound] | 63.4 ± 1.69% | 40.4 ± 1.15% | 29.3 ± 1.24% | 29.1 ± 2.75% |  | IC50 (EGFR^wt-TK): 0.14 ± 0.011 µM; IC50 (A549 cells [1]): 1.53 ± 0.72 µM; IC50 (PC-3 cells): 22.5 ± 0.74 µM; IC50 (SMMC-7721 cells): 11.4 ± 1.95 µM
Cn1c(COc2ccc(/C=N/c3ccccc3)cc2)nc2ccccc2c1=O [5a, (E)-3-methyl-2-((4-((phenylimino)methyl)phenoxy)methyl)quinazolin-4(3H)-one] | 1.91 ± 0.91% | 15.4 ± 1.52% | 7.36 ± 2.38% | 15.1 ± 5.91% | 150 to 152 °C | 
Cc1ccccc1/N=C/c1ccc(OCc2nc3ccccc3c(=O)n2C)cc1 [5b, (E)-3-methyl-2-((4-((o-tolylimino)methyl)phenoxy)methyl)quinazolin-4(3H)-one] | 2.57 ± 1.25% | 14.5 ± 4.09% | 23.9 ± 8.59% | 24.3 ± 1.7% | 162 to 164 °C | 
Cc1ccc(/N=C/c2ccc(OCc3nc4ccccc4c(=O)n3C)cc2)cc1 [5c, (E)-3-methyl-2-((4-((p-tolylimino)methyl)phenoxy)methyl)quinazolin-4(3H)-one] | 50.8 ± 3.29% | 12.1 ± 2% | 7.46 ± 0.52% | 31.8 ± 9.91% | 182 to 184 °C | 
COc1ccccc1/N=C/c1ccc(OCc2nc3ccccc3c(=O)n2C)cc1 [5d, (E)-2-((4-(((2-methoxyphenyl)imino)methyl)phenoxy)methyl)-3-methylquinazolin-4(3H)-one] | 38.7 ± 1.83% | 20.8 ± 4.81% | 38.2 ± 1.4% | 2.78 ± 4.23% | 141 to 143 °C | 
COc1ccc(/N=C/c2ccc(OCc3nc4ccccc4c(=O)n3C)cc2)cc1 [5e, (E)-2-((4-(((4-methoxyphenyl)imino)methyl)phenoxy)methyl)-3-methylquinazolin-4(3H)-one] | 53.6 ± 1.25% | 25.9 ± 7.46% | 40.2 ± 3.57% | 20.1 ± 9.11% | 180 to 182 °C | 
Cn1c(COc2ccc(/C=N/c3ccccc3F)cc2)nc2ccccc2c1=O [5f, (E)-2-((4-(((2-fluorophenyl)imino)methyl)phenoxy)methyl)-3-methylquinazolin-4 (3H)-one] | 1.31 ± 3.64% | 16.3 ± 1.43% | 5.46 ± 0.28% | 2.65 ± 1.81% | 143 to 145 °C | 
Cn1c(COc2ccc(/C=N/c3cccc(F)c3)cc2)nc2ccccc2c1=O [5g, (E)-2-((4-(((3-fluorophenyl)imino)methyl)phenoxy)methyl)-3-methylquinazolin-4(3H)-one] | 65 ± 1.51% | 15.6 ± 2.56% | 4.76 ± 0.51% | 35.6 ± 1.27% | 168 to 170 °C | IC50 (EGFR^wt-TK): 0.047 ± 0.004 µM; IC50 (A549 cells [1]): 19.7 ± 2.34 µM; IC50 (PC-3 cells): 30.1 ± 1.86 µM; IC50 (SMMC-7721 cells): 35.9 ± 5.85 µM
Cn1c(COc2ccc(/C=N/c3ccc(F)cc3)cc2)nc2ccccc2c1=O [5h, (E)-2-((4-(((4-fluorophenyl)imino)methyl)phenoxy)methyl)-3-methylquinazolin-4(3H)-one] | 56.2 ± 2.16% | 14.8 ± 5.06% | 14.8 ± 2.3% | 22.9 ± 1.66% | 200 to 202 °C | 
Cn1c(COc2ccc(/C=N/c3cccc(Cl)c3)cc2)nc2ccccc2c1=O [5i, (E)-2-((4-(((3-chlorophenyl)imino)methyl)phenoxy)methyl)-3-methylquinazolin-4(3H)-one] | 1.04 ± 0.91% | 23.3 ± 7.52% | 9.6 ± 2.69% | 13.1 ± 2.92% | 179 to 181 °C | 
Cn1c(COc2ccc(/C=N/c3cccc(Br)c3)cc2)nc2ccccc2c1=O [5j, (E)-2-((4-(((3-bromophenyl)imino)methyl)phenoxy)methyl)-3-methylquinazolin-4(3H)-one] | 53.3 ± 1.58% | 18 ± 6.69% | 17.9 ± 6.12% | 18.6 ± 1.51% | 176 to 178 °C | 
Cn1c(COc2ccc(/C=N/c3ccc(F)c(F)c3)cc2)nc2ccccc2c1=O [5k, (E)-2-((4-(((3,4-difluorophenyl)imino)methyl)phenoxy)methyl)-3-methylquinazolin-4(3H)-one] | 63.4 ± 1.83% | 27 ± 1.63% | 57.5 ± 2.77% | 34.9 ± 4.72% | 152 to 154 °C | Induction of apoptosis in A549 cells (A549 cells [2]): induces cellular apoptosis in a concentration-dependent way; IC50 (EGFR^wt-TK): 0.01 ± 0.001 µM; IC50 (A549 cells [1]): 12.3 ± 4.12 µM; IC50 (PC-3 cells): 17.1 ± 3.61 µM; Percentage of cells in G0/G1 (A549 cells [3]; A549, 5 μM): 61.23%; Percentage of cells in G2/M (A549 cells [3]; A549, 5 μM): 25.31%; Percentage of cells in S (A549 cells [3]; A549, 5 μM): 13.46%; Percentage of cells in G0/G1 (A549 cells [3]; A549, 10 μM): 62.42%; Percentage of cells in G2/M (A549 cells [3]; A549, 10 μM): 23.10%; Percentage of cells in S (A549 cells [3]; A549, 10 μM): 14.48%; Cell cycle arrest of A549 cells (A549 cells [3]; A549, 48 h): arrested in the G2/M phase; IC50 (SMMC-7721 cells): 15.7 ± 1.64 µM
Cn1c(COc2ccc(/C=N/c3cc(F)cc(F)c3)cc2)nc2ccccc2c1=O [5l, (E)-2-((4-(((3,5-difluorophenyl)imino)methyl)phenoxy)methyl)-3-methylquinazolin-4(3H)-one] | 61.9 ± 1.51% | 31.2 ± 2.49% | 54.3 ± 7.59% | 41 ± 2.63% | 220 to 221 °C | IC50 (EGFR^wt-TK): 0.54 ± 0.031 µM; IC50 (A549 cells [1]): 7.22 ± 3.51 µM; IC50 (PC-3 cells): 13.3 ± 1.12 µM; IC50 (SMMC-7721 cells): 6.04 ± 0.55 µM
Cn1c(COc2ccc(/C=N/c3c(F)cccc3F)cc2)nc2ccccc2c1=O [5m, (E)-2-((4-(((2,6-difluorophenyl)imino)methyl)phenoxy)methyl)-3-methylquinazolin-4(3H)-one] | 25.8 ± 1.92% | 15.2 ± 3.61% | 26.8 ± 0.59% | 15.1 ± 5.79% | 181 to 183 °C | 
Cn1c(COc2ccc(/C=N/c3ccc(F)cc3F)cc2)nc2ccccc2c1=O [5n, (E)-2-((4-(((2,4-difluorophenyl)imino)methyl)phenoxy)methyl)-3-methylquinazolin-4(3H)-one] | 48.4 ± 0.35% | 33.3 ± 3.63% | 25.8 ± 4.84% | 11.5 ± 2.87% | 181 to 183 °C | 
Cn1c(COc2ccc(/C=N/c3ccc(F)c(Cl)c3)cc2)nc2ccccc2c1=O [5o, (E)-2-((4-(((3-chloro-4-fluorophenyl)imino)methyl)phenoxy)methyl)-3-methyl quinazolin-4(3H)-one] | 16.7 ± 2.99% | 18.7 ± 9.78% | 13.9 ± 0.92% | 24.5 ± 1.37% | 188 to 189 °C | 
Cn1c(COc2ccc(/C=N/c3ccc(Cl)c(C(F)(F)F)c3)cc2)nc2ccccc2c1=O [5p, (E)-2-((4-(((4-chloro-3-(trifluoromethyl)phenyl)imino)methyl)phenoxy)methyl)-3-methylquinazolin-4(3H)-one] | 4.32 ± 1.92% | 15.6 ± 2.66% | 22.6 ± 1.28% | 17.5 ± 2.67% | 163 to 164 °C | 
COc1cc2ncnc(Nc3ccc(F)c(Cl)c3)c2cc1OCCCN1CCOCC1 [Gefitinib, reference compound] |  |  |  |  |  | Percentage of cells in G0/G1 (A549 cells [3]; A549, 5 μM): 58.50%; Percentage of cells in S (A549 cells [3]; A549, 5 μM): 12.03%; Percentage of cells in G0/G1 (A549 cells [3]; A549, 10 μM): 62.15%; Percentage of cells in S (A549 cells [3]; A549, 10 μM): 13.56%
N[C@@H](Cc1ccccc1)C(=O)Nn1c(-c2ccc(F)cc2)nc2ccc(F)cc2c1=O [II] |  |  |  |  |  | IC50 (EGFR): 0.164 µM
COc1ccc(-c2nnc(-n3c(-c4ccccc4)nc4cc(Cl)ccc4c3=O)s2)cc1 [I] |  |  |  |  |  | IC50 (EGFR): 0.32 µM
